According to patent US4697036A, “Process for the preparation of optically active alpha-arylalkanoic acids and novel intermediates thereof” (Zambon S.p.A., priority 1984, dated 1987):

Experiments:
Type in all cases: in vivo
[1] = Antipyretic activity by peritoneal administration in rats (change in body temperature); conditions: peritoneal administration (title)
[2] = Anti-inflammatory activity by oral administration; conditions: for ED50: oral, dose column in μM/kg/os, after 3 h, read-out: ED50 (L.C. 95%)
From the text: A further unexpected property of the compounds of formula (C) is that they are in themselves pharmacologically active compounds. […] The following tables give the data relative to the anti-inflammatory and antipyretic activity of the compounds (D) in which: |Anti-inflammatory activity of the derivatives (a) and |(b) with respect to Naproxen and 5-bromo-Naproxen (c) |by oral administration

[3] = Antipyretic activity by oral administration in rats (change in body temperature)
From the text: Antipyretic activity of compound (a) and (b) with respect to
Naproxen and 5-bromo-Naproxen (c)
by oral administration in rats

SMILES | Change in body temperature after 30 min ([1]; 10 μM/kg) [°C] | Change in body temperature after 1 hour ([1]; 10 μM/kg) [°C] | Change in body temperature after 4 hours ([1]; 10 μM/kg) [°C] | Change in body temperature after 30 min ([1]; 30 μM/kg) [°C] | Change in body temperature after 1 hour ([1]; 30 μM/kg) [°C] | Change in body temperature after 4 hours ([1]; 30 μM/kg) | Inhibition (after 3 h) ([2]; 10 μM/kg/os) [%] | Inhibition (after 3 h) ([2]; 30 μM/kg/os) [%] | Inhibition (after 3 h) ([2]; 100 μM/kg/os) [%] | ED50 [2] [µmol/kg] | Change in body temperature after 1 hour ([3]; 10 μM/kg/oral) [°C] | Change in body temperature after 2 hours ([3]; 10 μM/kg/oral) | Change in body temperature after 1 hour ([3]; 30 μM/kg/oral) | Change in body temperature after 2 hours ([3]; 30 μM/kg/oral) [°C] | Change in body temperature after 1 hour ([3]; 100 μM/kg/oral) | Change in body temperature after 2 hours ([3]; 100 μM/kg/oral) [°C] | Change in body temperature after 1 hour ([3]; 300 μM/kg/oral) | Change in body temperature after 2 hours ([3]; 300 μM/kg/oral) [°C] | other results
COC(=O)C(O)C(OC(=O)C(C)c1ccc2cc(OC)ccc2c1)C(=O)OC (stereo not shown) [(a)] | -0.26 | -0.52 | -0.19 | -0.61 | -1.02 | -0.56 °C | 0 | 0 | 16 | 175 | -0.02 | +0.02 °C | +0.07 °C | -0.61 | +0.01 °C | -0.76 | +0.03 °C | -0.81 | –
COc1ccc2cc([C@H](C)C(=O)O)ccc2c1Br [(c), S(+)-2-(5-bromo-6-methoxy-2-naphthyl)-propionic acid, reference compound] | – | – | – | -0.55 | -1.01 | +0.06 °C | 6 | 34 | 34 | 196 | – | – | -0.17 °C | -0.66 | -1.33 °C | -1.67 | -1.42 °C | -1.84 | Change in body temperature after 30 min ([1]; 100 μM/kg): -0.78 °C; Change in body temperature after 1 hour ([1]; 100 μM/kg): -1.45 °C; Change in body temperature after 4 hours ([1]; 100 μM/kg): -0.99 °C; Inhibition (after 3 h) ([2]; 300 μM/kg/os): 56%
COc1ccc2cc([C@H](C)C(=O)O)ccc2c1 [Naproxen, S(+)2-(6-methoxy-2-naphtyl)-propionic acid, reference compound] | -1.00 | -1.10 | -0.86 | – | – | – | 38 | 45 | 66 | 31 | -1.22 | -1.48 °C | -1.86 °C | -1.89 | – | – | – | – | Change in body temperature after 1 hour ([3]; 3 μM/kg/oral): -0.38 °C; Change in body temperature after 2 hours ([3]; 3 μM/kg/oral): -0.52 °C
COC(=O)C(O)C(OC(=O)C(C)c1ccc2c(Br)c(OC)ccc2c1)C(=O)OC (stereo not shown) [(b)] | -0.24 | -0.52 | -0.26 | -0.77 | -0.87 | -0.44 °C | 3 | 14 | 20 | 160 | -0.17 | -0.19 °C | -0.49 °C | -0.68 | -0.46 °C | -0.68 | – | – | –
